According to patent US20250282742A1, “BENZOFURAN DERIVATIVES FOR TARGETING AUTOPHAGY” (Automera PTE. LTD, priority 2024, published 2025):

target: T1, Recombinant p62 protein (Homo sapiens, UniProt Q13501); experiment: Surface plasmon resonance (SPR) compound binding to immobilised p62; conditions: recombinant p62, 15° C
T1 construct: Recombinant p62 protein was buffer exchanged into Biacore SPR running buffer
Method: Example 28: Surface Plasmon Resonance (SPR) Analysis
Recombinant p62 protein was buffer exchanged into Biacore SPR running buffer (Cytiva 100671) using the Slide-A-Lyzer Mini Dialysis system 7K MWCO (Thermo Fisher Scientific, Cat no. 69560). The final protein concentration was determined using the Nanodrop One spectrophotometer (Thermo Fisher Scientific, cat no. ND-ONE-W), with calibration for the dialysis buffer.
The prepared protein was diluted in sodium acetate buffer (NaAc, pH 5.5, Cytiva) to concentrations ranging from approximately 0.25-40 μg/mL. Post-immobilization, the protein required approximately 16 hours of equilibration in running buffer supplemented with 1% DMSO at 15° C. to ensure adequate surface equilibration and protein reorganization.
All SPR experiments were conducted at a constant temperature of 15° C. The SPR chip surface was activated using EDC/NHS for a contact time of 6-10 min at a flow rate of 10 μL/min. This was followed by protein immobilization for 2100 seconds and ethanolamine capping for 420 seconds, both at the same flow rate. Immediately after immobilization, the NH2—REEE peptide was analyzed in Single Cycle Kinetics mode (SCK) to verify surface activity, ensuring it binds the sample with the published affinity (−20 μM by SPR).
For general compound binding studies, experiments were performed at 15° C. using a running buffer composed of 10 mM HEPES, 150 mM NaCl, 1 mM DTT, 0.05% Tween 20, and 1% DMSO at pH 7.4. The test compound was initially prepared at a 20 mM concentration in DMSO and subsequently titrated in 2-fold dilutions. For each assay, 2 μL of the compound was mixed with 198 μL of the running buffer, and the mixture was thoroughly pipetted approximately 15 times for homogenization.
A series of blank injections (0 μM concentration) were included for double referencing, with at least 8 or 16 per plate depending on the format. Typical injection parameters were 120 seconds for association and 180 seconds for dissociation at a flow rate of […]. A four-point solvent correction was prepared with DMSO concentrations ranging from 2% to 0.5% in the buffer. Post each compound injection, the system's needles were washed with 50% DMSO.
Analysis of the SPR data was conducted using the Cytiva Evaluation software. The binding levels at the late time-point of each interaction were corrected for reference, then normalized to percentage bound values to account for variations in immobilization levels, protein molecular weight, and compound molecular weight.
Compound binding studies were carried out according to experimental procedures above and SPR % occupancy was determined and summarized in Table 7.

T1 sequence (Q13501 whole entry, species assumed): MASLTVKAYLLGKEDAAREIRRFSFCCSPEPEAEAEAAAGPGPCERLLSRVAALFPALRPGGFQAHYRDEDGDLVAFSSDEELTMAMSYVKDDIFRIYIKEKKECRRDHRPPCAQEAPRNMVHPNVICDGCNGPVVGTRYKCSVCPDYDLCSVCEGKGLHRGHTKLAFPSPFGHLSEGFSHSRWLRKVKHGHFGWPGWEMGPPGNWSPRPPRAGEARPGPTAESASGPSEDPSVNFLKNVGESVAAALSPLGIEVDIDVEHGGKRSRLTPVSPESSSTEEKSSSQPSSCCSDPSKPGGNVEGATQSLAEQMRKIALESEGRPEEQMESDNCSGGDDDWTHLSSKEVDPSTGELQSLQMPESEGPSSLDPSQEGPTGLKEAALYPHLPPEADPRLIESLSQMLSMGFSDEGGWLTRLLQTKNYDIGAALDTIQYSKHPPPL

receptor occupancy at 100 µM [%]	SMILES
< 30	O=C(NCCO)c1ccc2cc(Cc3ccccc3)oc2c1 [Compound 6, 2-benzyl-N-(2-hydroxyethyl)benzofuran-6-carboxamide]
< 30	O=C(CCO)Nc1ccc2cc(Cc3ccccc3)oc2c1 [Compound 11, N-(2-benzylbenzofuran-6-yl)-3-hydroxypropanamide]
30 to 70	OCCNCc1ccc2cc(Cc3ccncc3)oc2c1 [Compound 16, 2-(((2-(pyridin-4-ylmethyl)benzofuran-6-yl)methyl)amino)ethan-1-ol]
30 to 70	O=S(=O)(c1ccccc1)c1cc2ccc(CNCCO)cc2o1 [Compound 18, 2-(((2-(phenylsulfonyl)benzofuran-6-yl)methyl)amino)ethan-1-ol]
30 to 70	O=S(=O)(Nc1ccccc1)c1cc2ccc(CNCCO)cc2o1 [Compound 19, 6-(((2-hydroxyethyl)amino)methyl)-N-phenylbenzofuran-2-sulfonamide]
< 30	CN(C)C(=O)Cc1cc2ccc(CNCCO)cc2o1 [Compound 29, 2-(6-(((2-hydroxyethyl)amino)methyl)benzofuran-2-yl)-N,N-dimethylacetamide]
< 30	O=C(c1cc2ccc(CNCCO)cc2o1)N1CCCCC1 [Compound 34, (6-(((2-hydroxyethyl)amino)methyl)benzofuran-2-yl)(piperidin-1-yl)methanone]
30 to 70	OCCNCc1cc2oc(Cc3ccccc3)cc2cc1F [Compound 36, 2-(((2-benzyl-5-fluorobenzofuran-6-yl)methyl)amino)ethan-1-ol]
30 to 70	OCCNCc1ccc2cc(Cc3ccccc3)oc2c1F [Compound 38, 2-(((2-benzyl-7-fluorobenzofuran-6-yl)methyl)amino)ethan-1-ol]
30 to 70	OCCNCc1cccc2oc(Cc3ccccc3)cc12 [compound 4]
< 30	OCCNCc1ccc2cc(CN3CCCC(O)C3)oc2c1 (stereo not drawn) [compound 28]
< 30	OCCNCc1ccc2cc(CNC3CCOCC3)oc2c1 [compound 32]
30 to 70	OCCNCc1ccc2oc(Cc3ccccc3)cc2c1 [compound 45]
< 30	OCCNCc1ccc2nc(Cc3ccccc3)oc2c1 [compound 47, 2-(((2-benzylbenzo[d]oxazol-6-yl)methyl)amino)ethan-1-ol]
30 to 70	OCCNCc1ccc2nc(Cc3ccccc3)sc2c1 [compound 48, 2-(((2-benzylbenzo[d]thiazol-6-yl)methyl)amino)ethan-1-ol]
< 30	O=C(NCCO)c1ccc2cc(CCc3ccc(F)cc3)oc2c1 [compound 50, 2-(4-fluorophenethyl)-N-(2-hydroxyethyl)benzofuran-6-carboxamide]

SMILES	receptor occupancy at 100 µM [%]
OCCNCc1ccc2cc(Cc3c[nH]cn3)oc2c1 [compound 23]	< 30

tested on: p62 puncta in HeLa cells; experiment: p62 puncta assay (immunocytochemistry and imaging, EVOS M7000 or Operetta CLS); format: cell-based; conditions: Homo sapiens, fold change in p62 puncta levels relative to DMSO control, 24 hr
Method: HeLa cells were seeded in coated 96-well plates (10,000 cells) and allowed to adhere overnight. After 24 hours of treatment with either vehicle (DMSO) or test compounds, the media was discarded, and cells were rinsed with ice-cold 1×PBS before fixation by 4% formaldehyde or paraformaldehyde for 20 min. Cells were then washed with 1×PBS and permeabilized with 0.1% Triton X-100 in PBS for 20 min and blocked with Blocking Buffer in PBS for 1 hour. The cells were incubated thereafter for 1 hour with anti-p62 primary antibody in Blocking Buffer, followed by incubation with secondary antibody for 1 hour. DAPI dye was used to visualize nuclei of fixed cells. The blocking buffer used were 5% Fetal Bovine Serum (FBS, ThermoFIsher Scientific, 10270106) and Li-cor Intercept (PBS) Blocking Buffer (Li-cor, 927-70001). The primary antibody used was mouse anti-p62 primary antibody (Novus Biologicals, H00008878-MO1). The secondary antibodies used were goat anti-mouse Alexa Fluor Plus 488 secondary antibody (Invitrogen, GOXMS) and goat anti-mouse Alexa Fluor 488 secondary antibody (Invitrogen, A-11029). The DAPI dyes used were DAPI dye (Invitrogen, 62248) and DAPI dye (Invitrogen, D1306).
For the EVOS M7000 System, cells were imaged on the EVOS M7000 microscope using a 20× air objective (Nikon, N.A 0.45). DAPI and p62 channels were illuminated with LED light cubes using integrated hard-coated filter sets for DAPI (357/447 nm) and GFP (470/525 nm) respectively. Images were analysed for p62 puncta count on the Celeste 6.0 software.
For the Operetta CLS System, cells were imaged on the Operetta CLS using a 63× water objective on the DAPI and Alexa 488 channels. Images were analysed for p62 puncta count on the Harmony 5.1 software.
HeLa cells were treated with compounds for 24 hours to evaluate the effect of these compounds on p62 puncta activity. The resulting changes in levels of p62 puncta were assessed by imaging, either on the EVOS M7000 or Operetta CLS systems as described in experimental procedures. The fold change of p62 puncta levels induced by compound treatment relative to vehicle control (DMSO) was determined and summarized in Table 10.

SMILES	fold induction at 5 µM
OCCNCc1ccc2oc(Cc3ccccc3)cc2c1 [compound 45]	< 2
CC(C)(C)OC(=O)NCC1CC(COCCNCc2ccc3cc(CCc4ccc(F)cc4)oc3c2)C1 (stereo not drawn) [compound 163]	> 2
C#Cc1ccc(COCCNCc2ccc3cc(CCc4ccc(F)cc4)oc3c2)cc1 [compound 164]	> 2
CC(C)(C)OC(=O)N1CCC(COCCOCCNCc2ccc3cc(CCc4ccc(F)cc4)oc3c2)CC1 [compound 165]	> 2
CC(C)(C)OC(=O)NC1CCN(CCOCCNCc2ccc3cc(CCc4ccc(F)cc4)oc3c2)CC1 [compound 166]	> 2
CC(C)(C)OC(=O)NC[C@H]1CC[C@H](COCCNCc2ccc3cc(CCc4ccc(F)cc4)oc3c2)CC1 [compound 167]	> 2
CC(C)(C)OC(=O)N[C@H]1CC[C@H](COCCNCc2ccc3cc(CCc4ccc(F)cc4)oc3c2)CC1 [compound 168]	> 2
